Experimental data: US20170100320A1, “COMPOSITION FOR EXTERNAL USE SKIN PREPARATION, CONTAINING THIOREDOXIN” (Amorepacific Corporation, priority 2012, published 2017)

Columns and labels:
Type in all cases: cell-based
[1] = test system: fibroblasts; test: Stimulation of collagen biosynthesis (procollagen type (I) ELISA); settings: 24 hours; relative to control = 100%; TGF-beta 10 ng/ml
Procedure: The effect of thioredoxin of the present invention on the stimulation of collagen biosynthesis was measured in comparison with TGF-beta.
First, fibroblasts were seeded into a 24-well plate at a density of 10^5cells/well and cultured in serum-free DMEM medium for 24 hours to a confluence of about 90%. Then, the cells were treated with each of a solution of thioredoxin of the present invention and 10 ng/ml of TGF-beta dissolved in serum-free medium and incubated in a CO2 incubator for 24 hours. The supernatants of the cell cultures were collected and the amount of procollagen therein was measured using a procollagen type (I) ELISA kit. The values of collagen synthesis (%) in Table 8 are expressed as percentages relative to the control taken as 100%.

[2] = test system: human keratinocytes; test: Stimulation of keratinocyte differentiation (cornified envelope protein, absorbance 340 nm); settings: 5 days culture; thioredoxin 5 ppm; low-calcium negative control = 100
Procedure: In order to examine the effect of thioredoxin on the stimulation of differentiation of keratinocytes, the amount of cornified envelope (CE) protein produced during the differentiation of keratinocytes was measured by absorbance in the following manner.
Specifically, human keratinocytes, isolated from the […] of newborns and primarily cultured, were placed in a culture flask and attached to the bottom. Then, the cells were cultured with a medium containing 5 ppm of thioredoxin for 5 days until the cells reached to a confluence of about 70-80%. At the same time, a low calcium (0.03 mM)-treated group and a high calcium (1.2 mM)-treated group were used as a negative control group and a positive control group, respectively. Then, the cultured cells were harvested and washed with PBS (phosphate buffered saline). Then, the cells were sonicated in 1 ml of 10 mM Tris-HCl (pH 7.4) containing 2% SDS (sodium dodecyl sulfate) and 20 mM DTT (dithiothreitol), boiled and centrifuged. The precipitate was suspended in 1 ml of PBS, and the absorbance at 340 nm was measured. Separately, a portion of the solution following the sonication was taken, and the protein content thereof was measured as a reference for evaluating the degree of differentiation of the cells.

[3] = molecular target: T1, 5α-reductase in HEK293-5αR2 cells (Homo sapiens, UniProt P31213); test: Inhibition of 5α-reductase activity ([14C]testosterone to [14C]dihydrotestosterone conversion); settings: 2 hours incubation at 37° C.; for Conversion (%): testosterone to DHT
T1 construct: 3xFLAG; expressed in transfected cells; host or cells: HEK293 (Human Embryonic Kidney 293)
T1 sequence (P31213 1-254): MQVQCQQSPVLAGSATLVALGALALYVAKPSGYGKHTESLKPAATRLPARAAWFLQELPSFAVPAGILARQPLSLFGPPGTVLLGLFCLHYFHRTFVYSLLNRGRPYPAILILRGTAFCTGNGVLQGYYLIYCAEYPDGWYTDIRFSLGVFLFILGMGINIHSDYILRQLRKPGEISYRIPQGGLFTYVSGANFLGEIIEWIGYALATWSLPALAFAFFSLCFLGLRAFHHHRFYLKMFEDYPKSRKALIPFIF
Procedure: In order to examine the effect of inhibiting 5α-reductase activity, the ratio of [^14C]testosterone-to-[^14C]dihydrotestosteron conversion in Human Embryonic Kidney 293(HEK293)-5αR2 cells was measured. HEK293 cells transfected with plasmid p3×FLAG-CMV™-5αR2 were added to a 24-well plate at a density of 2.5×10^5cells/well and cultured (Park et al., 2003, J. Dermatological Science. Vol. 31, pp. 91-98). The next day, the medium was replaced with a fresh medium containing an enzyme substrate and an inhibitor. As the substrate of the medium, 0.05 μCi [^14C]testosterone (Amersham Pharmacia Biotech, UK) was used.
In order to measure the degree of inhibition of 5α-reductase activity, thioredoxin was added to the cells which were then incubated in a 5% CO2 incubator at 37° C. for 2 hours. At the same time, a medium containing no thioredoxin was used as a negative, and a medium containing finasteride was used as a positive control. Next, the culture medium was collected, and steroid was extracted with 800 μl of ethyl acetate. The upper organic solvent layer was separated and dried, and the remaining material was dissolved in 50 μl of ethyl acetate and developed on silica plastic sheet kieselgel 60 F254 using ethyl acetate-hexane (1:1) as a developing solvent.
The plastic sample was dried in air, and the amount of isotopes was measured using a Vas system. Specifically, the dried plastic sheet together with an X-ray film was placed in a Vas cassette, and after 1 week, the amounts of the testosterone and dihydrotestosterone (DHT) isotopes were measured, and then the percent conversion and the percent inhibition were measured using the following equations 1 and 2, respectively.
Conversion (%)=radioactivity in the DHT region/total radioactivity×100
Inhibition (%)=(conversion of control−conversion of sample)/conversion of control×100

Compound | Collagen synthesis (%) [1] | Degree (%) of differentiation of keratinocytes [2] | Inhibition (%) ([3]; relative to conversion of control) | Conversion (%) [3]
TGF-β [reference compound] | 183.5% |  |  | 
Thioredoxin | 196.2% | 295% | 60.8% | 15.9%
CC(C)(C)NC(=O)[C@H]1CC[C@H]2[C@@H]3CC[C@H]4NC(=O)C=C[C@]4(C)[C@H]3CC[C@]12C [Positive control, finasteride, reference compound] |  |  |  | 27.6%
